# Measurements: PubChem BioAssay (NCI)
#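 All cell lines were grown in 96-well plates and treated with compound for 48 hours. Definition used: TGI = concentration required for complete inhibition of growth.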
# How the values were obtained:
# Test in all cases: NCI-60 cell line screen, 48 h
# HCT-116 colon = tested on: HCT-116 colon
# SF-268 CNS = tested on: SF-268 CNS
# SF-539 CNS = tested on: SF-539 CNS
# MOLT-4 leukemia = tested on: MOLT-4 leukemia
# KM12 colon = tested on: KM12 colon
# SF-295 CNS = tested on: SF-295 CNS
# MALME-3M melanoma = tested on: MALME-3M melanoma
# OVCAR-4 ovarian = tested on: OVCAR-4 ovarian
# NCI-H226 lung = tested on: NCI-H226 lung
# SK-MEL-28 melanoma = tested on: SK-MEL-28 melanoma
# HOP-62 NSCLC = tested on: HOP-62 NSCLC
# MDA-N = tested on: MDA-N
# IGROV1 ovarian = tested on: IGROV1 ovarian
# NCI-H23 lung = tested on: NCI-H23 lung
# SNB-19 CNS = tested on: SNB-19 CNS
# SK-OV-3 ovarian = tested on: SK-OV-3 ovarian
# SN12C renal = tested on: SN12C renal
# NCI-H460 lung = tested on: NCI-H460 lung
# CAKI-1 renal = tested on: CAKI-1 renal
# 786-0 renal = tested on: 786-0 renal
# RXF 393 renal = tested on: RXF 393 renal
# HOP-92 NSCLC = tested on: HOP-92 NSCLC
# SK-MEL-2 melanoma = tested on: SK-MEL-2 melanoma
# SNB-75 CNS = tested on: SNB-75 CNS
# T-47D breast = tested on: T-47D breast
# SW-620 colon = tested on: SW-620 colon
# RPMI-8226 leukemia = tested on: RPMI-8226 leukemia
# UO-31 renal = tested on: UO-31 renal
# LOX IMVI melanoma = tested on: LOX IMVI melanoma
# EKVX NSCLC = tested on: EKVX NSCLC
# NCI/ADR-RES ovarian = tested on: NCI/ADR-RES ovarian
# UACC-257 melanoma = tested on: UACC-257 melanoma
# HCT-15 colon = tested on: HCT-15 colon
# ACHN renal = tested on: ACHN renal
# BT-549 breast = tested on: BT-549 breast
# MDA-MB-231 breast = tested on: MDA-MB-231 breast
# MDA-MB-435 = tested on: MDA-MB-435
# OVCAR-3 ovarian = tested on: OVCAR-3 ovarian
# SK-MEL-5 melanoma = tested on: SK-MEL-5 melanoma
# A549 NSCLC = tested on: A549 NSCLC
# M14 melanoma = tested on: M14 melanoma
# COLO 205 colon = tested on: COLO 205 colon
# OVCAR-5 ovarian = tested on: OVCAR-5 ovarian
# PC-3 prostate = tested on: PC-3 prostate
# NCI-H522 lung = tested on: NCI-H522 lung
# K-562 leukemia = tested on: K-562 leukemia
# A498 renal = tested on: A498 renal
# DU-145 prostate = tested on: DU-145 prostate
# UACC-62 melanoma = tested on: UACC-62 melanoma
# HL-60(TB) leukemia = tested on: HL-60(TB) leukemia
# TK-10 renal = tested on: TK-10 renal
# CCRF-CEM leukemia = tested on: CCRF-CEM leukemia
# OVCAR-8 ovarian = tested on: OVCAR-8 ovarian
# MCF7 breast = tested on: MCF7 breast
# SR leukemia = tested on: SR leukemia
# U251 CNS = tested on: U251 CNS
# HS 578T breast = tested on: HS 578T breast
# HT29 colon = tested on: HT29 colon
# HCC-2998 colon = tested on: HCC-2998 colon
structure (smiles),measurement,setting,value
O=CCC1CCCCC1,TGI,HCT-116 colon,> 100 µM
same,TGI,SF-268 CNS,> 100 µM
same,TGI,SF-539 CNS,> 100 µM
same,TGI,MOLT-4 leukemia,> 100 µM
same,TGI,KM12 colon,> 100 µM
same,TGI,SF-295 CNS,> 100 µM
same,TGI,MALME-3M melanoma,> 100 µM
same,TGI,OVCAR-4 ovarian,> 100 µM
same,TGI,NCI-H226 lung,> 100 µM
same,TGI,SK-MEL-28 melanoma,> 100 µM
same,TGI,HOP-62 NSCLC,> 100 µM
same,TGI,MDA-N,> 100 µM
same,TGI,IGROV1 ovarian,> 100 µM
same,TGI,NCI-H23 lung,> 100 µM
same,TGI,SNB-19 CNS,> 100 µM
same,TGI,SK-OV-3 ovarian,> 100 µM
same,TGI,SN12C renal,> 100 µM
same,TGI,NCI-H460 lung,> 100 µM
same,TGI,CAKI-1 renal,> 100 µM
same,TGI,786-0 renal,> 100 µM
same,TGI,RXF 393 renal,> 100 µM
same,TGI,HOP-92 NSCLC,> 100 µM
same,TGI,SK-MEL-2 melanoma,> 100 µM
same,TGI,SNB-75 CNS,> 100 µM
same,TGI,T-47D breast,> 100 µM
same,TGI,SW-620 colon,> 100 µM
same,TGI,RPMI-8226 leukemia,> 100 µM
same,TGI,UO-31 renal,> 100 µM
same,TGI,LOX IMVI melanoma,> 100 µM
same,TGI,EKVX NSCLC,> 100 µM
same,TGI,NCI/ADR-RES ovarian,> 100 µM
same,TGI,UACC-257 melanoma,> 100 µM
same,TGI,HCT-15 colon,> 100 µM
same,TGI,ACHN renal,> 100 µM
same,TGI,BT-549 breast,> 100 µM
same,TGI,MDA-MB-231 breast,> 100 µM
same,TGI,MDA-MB-435,> 100 µM
same,TGI,OVCAR-3 ovarian,> 100 µM
same,TGI,SK-MEL-5 melanoma,> 100 µM
same,TGI,A549 NSCLC,> 100 µM
same,TGI,M14 melanoma,> 100 µM
same,TGI,COLO 205 colon,> 100 µM
same,TGI,OVCAR-5 ovarian,> 100 µM
same,TGI,PC-3 prostate,> 100 µM
same,TGI,NCI-H522 lung,> 100 µM
same,TGI,K-562 leukemia,> 100 µM
same,TGI,A498 renal,> 100 µM
COC(=O)c1c(O)ccc2c1c1c(n2Cc2cc(OC)cc(OC)c2)C(=O)c2ccccc2C1,TGI,HCT-116 colon,> 100 µM
same,TGI,SF-268 CNS,> 100 µM
same,TGI,DU-145 prostate,> 100 µM
same,TGI,UACC-62 melanoma,> 100 µM
same,TGI,SF-539 CNS,> 100 µM
same,TGI,MOLT-4 leukemia,> 100 µM
same,TGI,KM12 colon,> 100 µM
same,TGI,SF-295 CNS,> 100 µM
same,TGI,MALME-3M melanoma,> 100 µM
same,TGI,OVCAR-4 ovarian,44.8 µM
same,TGI,NCI-H226 lung,> 100 µM
same,TGI,SK-MEL-28 melanoma,60.9 µM
same,TGI,HL-60(TB) leukemia,> 100 µM
same,TGI,HOP-62 NSCLC,> 100 µM
same,TGI,MDA-N,> 100 µM
same,TGI,IGROV1 ovarian,> 100 µM
same,TGI,NCI-H23 lung,> 100 µM
same,TGI,SNB-19 CNS,> 100 µM
same,TGI,TK-10 renal,> 100 µM
same,TGI,SK-OV-3 ovarian,> 100 µM
same,TGI,SN12C renal,> 100 µM
same,TGI,NCI-H460 lung,> 100 µM
same,TGI,CAKI-1 renal,63.7 µM
same,TGI,786-0 renal,> 100 µM
same,TGI,CCRF-CEM leukemia,67.5 µM
same,TGI,RXF 393 renal,68.6 µM
same,TGI,SK-MEL-2 melanoma,> 100 µM
same,TGI,SNB-75 CNS,34.5 µM
same,TGI,SW-620 colon,> 100 µM
same,TGI,RPMI-8226 leukemia,36.2 µM
same,TGI,UO-31 renal,> 100 µM
same,TGI,LOX IMVI melanoma,> 100 µM
same,TGI,OVCAR-8 ovarian,> 100 µM
same,TGI,MCF7 breast,> 100 µM
same,TGI,NCI/ADR-RES ovarian,63.1 µM
same,TGI,SR leukemia,> 100 µM
same,TGI,U251 CNS,> 100 µM
same,TGI,UACC-257 melanoma,> 100 µM
same,TGI,HCT-15 colon,> 100 µM
same,TGI,BT-549 breast,> 100 µM
same,TGI,MDA-MB-231 breast,91.6 µM
same,TGI,MDA-MB-435,61.7 µM
same,TGI,HS 578T breast,> 100 µM
same,TGI,OVCAR-3 ovarian,> 100 µM
same,TGI,SK-MEL-5 melanoma,> 100 µM
same,TGI,A549 NSCLC,> 100 µM
same,TGI,HT29 colon,24.6 µM
same,TGI,M14 melanoma,> 100 µM
same,TGI,COLO 205 colon,26 µM
same,TGI,OVCAR-5 ovarian,56.1 µM
same,TGI,PC-3 prostate,49.1 µM
same,TGI,K-562 leukemia,> 100 µM
same,TGI,A498 renal,> 100 µM
N=C(N)C1CN(CCc2c[nH]c3ccccc23)C(=O)NC1=O (centres undefined),TGI,HCT-116 colon,> 100 µM
same,TGI,SF-268 CNS,> 100 µM
same,TGI,DU-145 prostate,> 100 µM
same,TGI,UACC-62 melanoma,> 100 µM
same,TGI,MOLT-4 leukemia,> 100 µM
same,TGI,SF-295 CNS,> 100 µM
same,TGI,MALME-3M melanoma,> 100 µM
same,TGI,OVCAR-4 ovarian,> 100 µM
same,TGI,NCI-H226 lung,> 100 µM
same,TGI,SK-MEL-28 melanoma,> 100 µM
same,TGI,HL-60(TB) leukemia,> 100 µM
same,TGI,HOP-62 NSCLC,> 100 µM
same,TGI,MDA-N,> 100 µM
same,TGI,IGROV1 ovarian,> 100 µM
same,TGI,NCI-H23 lung,> 100 µM
same,TGI,SNB-19 CNS,> 100 µM
same,TGI,TK-10 renal,> 100 µM
same,TGI,SK-OV-3 ovarian,> 100 µM
same,TGI,SN12C renal,> 100 µM
same,TGI,NCI-H460 lung,> 100 µM
same,TGI,786-0 renal,> 100 µM
same,TGI,CCRF-CEM leukemia,> 100 µM
same,TGI,HOP-92 NSCLC,> 100 µM
same,TGI,SNB-75 CNS,> 100 µM
same,TGI,T-47D breast,> 100 µM
same,TGI,SW-620 colon,> 100 µM
same,TGI,RPMI-8226 leukemia,> 100 µM
same,TGI,HCC-2998 colon,> 100 µM
same,TGI,UO-31 renal,> 100 µM
same,TGI,LOX IMVI melanoma,> 100 µM
same,TGI,EKVX NSCLC,> 100 µM
same,TGI,OVCAR-8 ovarian,> 100 µM
same,TGI,MCF7 breast,> 100 µM
same,TGI,NCI/ADR-RES ovarian,> 100 µM
same,TGI,SR leukemia,> 100 µM
same,TGI,U251 CNS,> 100 µM
same,TGI,UACC-257 melanoma,> 100 µM
same,TGI,HCT-15 colon,> 100 µM
same,TGI,ACHN renal,> 100 µM
same,TGI,BT-549 breast,> 100 µM
same,TGI,MDA-MB-231 breast,> 100 µM
same,TGI,MDA-MB-435,> 100 µM
same,TGI,OVCAR-3 ovarian,> 100 µM
same,TGI,SK-MEL-5 melanoma,> 100 µM
same,TGI,A549 NSCLC,> 100 µM
same,TGI,HT29 colon,> 100 µM
same,TGI,M14 melanoma,> 100 µM
same,TGI,COLO 205 colon,> 100 µM
same,TGI,OVCAR-5 ovarian,> 100 µM
same,TGI,PC-3 prostate,> 100 µM
same,TGI,K-562 leukemia,> 100 µM
same,TGI,A498 renal,> 100 µM
O=C1/C(=C/c2ccc(Br)s2)NC(=S)N1c1ccccc1,TGI,HCT-116 colon,> 100 µM
same,TGI,SF-268 CNS,> 100 µM
same,TGI,DU-145 prostate,> 100 µM
same,TGI,UACC-62 melanoma,> 100 µM
same,TGI,MOLT-4 leukemia,> 100 µM
same,TGI,KM12 colon,> 100 µM
same,TGI,SF-295 CNS,> 100 µM
same,TGI,MALME-3M melanoma,> 100 µM
same,TGI,OVCAR-4 ovarian,> 100 µM
same,TGI,NCI-H226 lung,> 100 µM
same,TGI,SK-MEL-28 melanoma,> 100 µM
same,TGI,HL-60(TB) leukemia,> 100 µM
same,TGI,HOP-62 NSCLC,> 100 µM
same,TGI,MDA-N,> 100 µM
same,TGI,IGROV1 ovarian,> 100 µM
same,TGI,NCI-H23 lung,> 100 µM
same,TGI,SNB-19 CNS,> 100 µM
same,TGI,TK-10 renal,> 100 µM
same,TGI,SK-OV-3 ovarian,> 100 µM
same,TGI,SN12C renal,> 100 µM
same,TGI,NCI-H460 lung,> 100 µM
same,TGI,CAKI-1 renal,> 100 µM
same,TGI,786-0 renal,> 100 µM
same,TGI,CCRF-CEM leukemia,> 100 µM
same,TGI,RXF 393 renal,> 100 µM
same,TGI,HOP-92 NSCLC,71.6 µM
same,TGI,SK-MEL-2 melanoma,> 100 µM
same,TGI,SW-620 colon,> 100 µM
same,TGI,RPMI-8226 leukemia,85.1 µM
same,TGI,HCC-2998 colon,> 100 µM
same,TGI,UO-31 renal,> 100 µM
same,TGI,LOX IMVI melanoma,> 100 µM
same,TGI,EKVX NSCLC,> 100 µM
same,TGI,MCF7 breast,> 100 µM
same,TGI,SR leukemia,> 100 µM
same,TGI,U251 CNS,> 100 µM
same,TGI,UACC-257 melanoma,> 100 µM
same,TGI,HCT-15 colon,> 100 µM
same,TGI,ACHN renal,> 100 µM
same,TGI,BT-549 breast,> 100 µM
same,TGI,MDA-MB-231 breast,> 100 µM
same,TGI,MDA-MB-435,> 100 µM
same,TGI,HS 578T breast,> 100 µM
same,TGI,OVCAR-3 ovarian,> 100 µM
same,TGI,SK-MEL-5 melanoma,> 100 µM
same,TGI,HT29 colon,> 100 µM
same,TGI,COLO 205 colon,> 100 µM
same,TGI,OVCAR-5 ovarian,> 100 µM
same,TGI,PC-3 prostate,> 100 µM
same,TGI,NCI-H522 lung,> 100 µM
same,TGI,K-562 leukemia,> 100 µM
same,TGI,A498 renal,> 100 µM
